The experiment has as its target human F508del-CFTR (Homo sapiens, UniProt P13569, DEL508-508). Description: F508del-CFTR cell surface expression (corrector activity), DiscoveRx ß-galactosidase complementation chemiluminescence assay in recombinant U2OS cell line.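 As to all read-outs here: U2OS cells co-expressing ProLink-tagged F508del-CFTR and a membrane-anchored enzyme acceptor, where more surface CFTR restores β-galactosidase activity measured by chemiluminescence.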 The following applies: for EC50: EC50, F508del-CFTR cell surface expression, U2OS cells, 16h compound incubation, geomean values; for Emax: U2OS, in relation to Emax of corrector lumacaftor (=100%), arithmetic mean values.

Sequence of human F508del-CFTR (P13569 with tags, fused parts or gaps DEL508-508): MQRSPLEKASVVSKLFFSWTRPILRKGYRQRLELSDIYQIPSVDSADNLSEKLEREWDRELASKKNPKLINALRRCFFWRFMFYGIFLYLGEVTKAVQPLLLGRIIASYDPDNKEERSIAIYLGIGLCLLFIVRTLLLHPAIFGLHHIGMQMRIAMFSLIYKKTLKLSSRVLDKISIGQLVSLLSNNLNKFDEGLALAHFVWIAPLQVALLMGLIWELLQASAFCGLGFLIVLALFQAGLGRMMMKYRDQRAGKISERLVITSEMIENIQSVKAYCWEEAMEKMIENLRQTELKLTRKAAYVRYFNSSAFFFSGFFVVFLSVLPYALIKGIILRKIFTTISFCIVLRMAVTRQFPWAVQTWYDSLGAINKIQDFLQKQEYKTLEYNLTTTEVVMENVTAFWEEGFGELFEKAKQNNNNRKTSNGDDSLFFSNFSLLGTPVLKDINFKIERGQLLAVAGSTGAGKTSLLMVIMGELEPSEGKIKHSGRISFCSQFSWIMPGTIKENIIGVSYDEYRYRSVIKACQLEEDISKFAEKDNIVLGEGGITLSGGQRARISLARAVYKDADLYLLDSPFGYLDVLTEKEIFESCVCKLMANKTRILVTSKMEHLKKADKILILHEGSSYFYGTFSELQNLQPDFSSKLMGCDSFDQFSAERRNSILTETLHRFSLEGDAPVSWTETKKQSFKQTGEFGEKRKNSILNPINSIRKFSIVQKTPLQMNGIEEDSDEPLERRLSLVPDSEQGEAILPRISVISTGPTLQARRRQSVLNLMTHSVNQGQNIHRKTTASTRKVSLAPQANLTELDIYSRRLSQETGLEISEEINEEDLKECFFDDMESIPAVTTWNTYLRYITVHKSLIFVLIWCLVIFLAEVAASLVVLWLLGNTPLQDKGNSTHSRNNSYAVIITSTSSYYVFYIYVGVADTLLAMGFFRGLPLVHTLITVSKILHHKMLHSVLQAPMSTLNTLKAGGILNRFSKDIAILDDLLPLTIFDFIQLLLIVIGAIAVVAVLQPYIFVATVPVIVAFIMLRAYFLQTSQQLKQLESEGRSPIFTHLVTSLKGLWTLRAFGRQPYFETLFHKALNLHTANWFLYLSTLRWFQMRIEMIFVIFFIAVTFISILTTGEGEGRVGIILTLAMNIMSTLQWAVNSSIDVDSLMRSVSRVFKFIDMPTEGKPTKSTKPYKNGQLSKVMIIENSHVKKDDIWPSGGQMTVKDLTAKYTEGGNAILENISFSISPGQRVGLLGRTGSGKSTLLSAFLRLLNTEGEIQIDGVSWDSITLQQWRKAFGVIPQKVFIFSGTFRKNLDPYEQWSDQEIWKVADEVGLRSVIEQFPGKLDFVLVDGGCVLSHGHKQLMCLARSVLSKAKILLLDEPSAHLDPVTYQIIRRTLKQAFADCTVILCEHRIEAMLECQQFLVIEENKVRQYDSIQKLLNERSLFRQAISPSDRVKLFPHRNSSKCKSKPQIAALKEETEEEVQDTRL

As to `CC(C)C[C@H]1C(=O)N2CCCC[C@H]2C(=O)N[C@H](Cc2ccccc2)COc2ccc3ncc(F)cc3c2C(=O)N[C@H](C(=O)NCCc2cc(C3CC3)no2)CC(=O)N1C` [Example 777, (9S,13S,19aS,22R)-22-benzyl-N-(2-(3-cyclopropylisoxazol-5-yl)ethyl)-5-fluoro-13-isobutyl-12-methyl-7,11,14,20-tetraoxo-7,8,9,10,11,12,13,14,17,18,19,19a,20,21,22,23-hexadecahydro-16H-pyrido[2′,1′:6,7][1]oxa[4,7,10,14]tetraazacycloheptadecino[16,17-f]quinoline-9-carboxamide], the EC50 was 875 nM and the Emax was 216%.

As to `CC(C)C[C@H]1C(=O)N2CCCC[C@@H]2C(=O)N[C@H](Cc2ccccc2)COc2ccc3ncc(F)cc3c2C(=O)N[C@H](C(=O)NCCn2ncc(C3CC3)n2)CC(=O)N1C` [Example 778, (9S,13S,19aR,22R)-22-benzyl-N-(2-(4-cyclopropyl-2H-1,2,3-triazol-2-yl)ethyl)-5-fluoro-13-isobutyl-12-methyl-7,11,14,20-tetraoxo-7,8,9,10,11,12,13,14,17,18,19,19a,20,21,22,23-hexadecahydro-16H-pyrido[2′,11:6,7][1]oxa[4,7,10,14]tetraazacycloheptadecino[16,17-f]quinoline-9-carboxamide], the EC50 was 141 nM and the Emax amounted to 302%.

For `CC(C)C[C@H]1C(=O)N2CCCC[C@H]2C(=O)N[C@H](Cc2ccccc2)COc2ccc3ncc(F)cc3c2C(=O)N[C@H](C(=O)NCCn2ncc(C3CC3)n2)CC(=O)N1C` [Example 779, (9S,13S,19aS,22R)-22-benzyl-N-(2-(4-cyclopropyl-2H-1,2,3-triazol-2-yl)ethyl)-5-fluoro-13-isobutyl-12-methyl-7,11,14,20-tetraoxo-7,8,9,10,11,12,13,14,17,18,19,19a,20,21,22,23-hexadecahydro-16H-pyrido[2′,11:6,7][1]oxa[4,7,10,14]tetraazacycloheptadecino[16,17-f]quinoline-9-carboxamide], the EC50 turned out to be 811 nM and the Emax was 213%.

With `CC(C)C[C@H]1C(=O)N2CCCC[C@@H]2C(=O)N[C@H](Cc2ccccc2)COc2ccc3ncc(F)cc3c2C(=O)N[C@H](C(=O)NCCc2nc(C3CC3)no2)CC(=O)N1C` [Example 780, (9S,13S,19aR,22R)-22-benzyl-N-(2-(3-cyclopropyl-1,2,4-oxadiazol-5-yl)ethyl)-5-fluoro-13-isobutyl-12-methyl-7,11,14,20-tetraoxo-7,8,9,10,11,12,13,14,17,18,19,19a,20,21,22,23-hexadecahydro-16H-pyrido[2′,1′:6,7][1]oxa[4,7,10,14]tetraazacycloheptadecino[16,17-f]quinoline-9-carboxamide], the EC50 is 116 nM and the Emax stood at 280%.

Turning to `CC(C)C[C@H]1C(=O)N2CCCC[C@@H]2C(=O)N[C@H](Cc2ccccc2)COc2ccc3ncc(F)cc3c2C(=O)N[C@H](C(=O)NCCc2cc(C3CC3)on2)CC(=O)N1C` [Example 781, (9S,13S,19aR,22R)-22-benzyl-N-(2-(5-cyclopropylisoxazol-3-yl)ethyl)-5-fluoro-13-isobutyl-12-methyl-7,11,14,20-tetraoxo-7,8,9,10,11,12,13,14,17,18,19,19a,20,21,22,23-hexadecahydro-16H-pyrido[2′,1′:6,7][1]oxa[4,7,10,14]tetraazacycloheptadecino[16,17-f]quinoline-9-carboxamide], the EC50 came to 124 nM and the maximum response (Emax) stood at 296%.

In the case of `COc1cccc2c1C(=O)N[C@H](C(=O)NCCc1noc(C3CC3)n1)CC(=O)N(C)[C@@H](CC(C)C)C(=O)N(C)[C@H](Cc1nc(-c3ccc(F)cn3)no1)C(=O)N[C@H](Cc1ccccc1)CO2` [Example 782, (3R,6R,9S,13S)-3-benzyl-N-(2-(5-cyclopropyl-1,2,4-oxadiazol-3-yl)ethyl)-6-((3-(5-fluoropyridin-2-yl)-1,2,4-oxadiazol-5-yl)methyl)-9-isobutyl-16-methoxy-7,10-dimethyl-5,8,11,15-tetraoxo-2,3,4,5,6,7,8,9,10,11,12,13,14,15-tetradecahydropyrido[3,4-p][1]oxa[4,7,10,14]tetraazacycloheptadecine-13-carboxamide], the EC50 came to 859 nM and the maximal effect (Emax) was found to be 439%.

In the case of `COc1cc(CCNC(=O)[C@@H]2CC(=O)N(C)[C@@H](CC(C)C)C(=O)N(C)[C@H](Cc3nc(-c4ccc(F)cn4)no3)C(=O)N[C@H](Cc3ccccc3)COc3ccnc(OC)c3C(=O)N2)on1` [Example 783, (3R,6R,9S,13S)-3-benzyl-6-((3-(5-fluoropyridin-2-yl)-1,2,4-oxadiazol-5-yl)methyl)-9-isobutyl-16-methoxy-N-(2-(3-methoxyisoxazol-5-yl)ethyl)-7,10-dimethyl-5,8,11,15-tetraoxo-2,3,4,5,6,7,8,9,10,11,12,13,14,15-tetradecahydropyrido[3,4-p][1]oxa[4,7,10,14]tetraazacycloheptadecine-13-carboxamide], the EC50 is 889 nM and the Emax worked out at 410%.

`CC[C@@H]1C(=O)N[C@H](Cc2ccccc2)COc2cc(C)nc(OC)c2C(=O)N[C@H](C(=O)NCCc2cc(OC)no2)CC(=O)N(C)[C@@H](CC(C)C)C(=O)N1C` [Example 784, (3R,6R,9S,13S)-3-benzyl-6-ethyl-9-isobutyl-16-methoxy-N-(2-(3-methoxyisoxazol-5-yl)ethyl)-7,10,18-trimethyl-5,8,11,15-tetraoxo-2,3,4,5,6,7,8,9,10,11,12,13,14,15-tetradecahydropyrido[3,4-p][1]oxa[4,7,10,14]tetraazacycloheptadecine-13-carboxamide]: the EC50 amounted to 311 nM and the Emax worked out at 391%.

With `COc1cc(CCNC(=O)[C@@H]2CC(=O)N(C)[C@@H](CC(C)C)C(=O)N(C)[C@H](CC(F)F)C(=O)N[C@H](Cc3ccccc3)COc3cc(C)nc(OC)c3C(=O)N2)on1` [Example 785, (3R,6R,9S,13S)-3-benzyl-6-(2,2-difluoroethyl)-9-isobutyl-16-methoxy-N-(2-(3-methoxyisoxazol-5-yl)ethyl)-7,10,18-trimethyl-5,8,11,15-tetraoxo-2,3,4,5,6,7,8,9,10,11,12,13,14,15-tetradecahydropyrido[3,4-p][1]oxa[4,7,10,14]tetraazacycloheptadecine-13-carboxamide], the EC50 was 210 nM and the Emax worked out at 365%.

Consider `COc1cc(CCNC(=O)[C@@H]2CC(=O)N(C)[C@@H](CC(C)C)C(=O)N(C)[C@H](C)C(=O)N[C@H](Cc3ccccc3)COc3ccc4ncc(F)cc4c3C(=O)N2)on1` [Example 786, (3S,7S,10R,13R)-13-benzyl-20-fluoro-7-isobutyl-N-(2-(3-methoxyisoxazol-5-yl)ethyl)-6,9,10-trimethyl-1,5,8,11-tetraoxo-1,2,3,4,5,6,7,8,9,10,11,12,13,14-tetradecahydro-[1]oxa[4,7,10,14]tetraazacycloheptadecino[16,17-f]quinoline-3-carboxamide], for which the EC50 came to 156 nM and the Emax was found to be 337%.

Regarding `CC(C)C[C@H]1C(=O)N(C)[C@H](C)C(=O)N[C@H](Cc2ccccc2)COc2ccc3ncc(F)cc3c2C(=O)N[C@H](C(=O)NCCn2ncc(C3CC3)n2)CC(=O)N1C` [Example 787, (3S,7S,10R,13R)-13-benzyl-N-(2-(4-cyclopropyl-2H-1,2,3-triazol-2-yl)ethyl)-20-fluoro-7-isobutyl-6,9,10-trimethyl-1,5,8,11-tetraoxo-1,2,3,4,5,6,7,8,9,10,11,12,13,14-tetradecahydro-[1]oxa[4,7,10,14]tetraazacycloheptadecino[16,17-f]quinoline-3-carboxamide], the EC50 turned out to be 190 nM and the Emax came to 323%.

Turning to `COc1cccc(CCNC(=O)[C@@H]2CC(=O)N(C)[C@@H](CC(C)C)C(=O)N(C)[C@H](C)C(=O)N[C@H](Cc3ccccc3)COc3ccc4nccn4c3C(=O)N2)c1` [Example 788, (3S,7S,10R,13R)-13-benzyl-7-isobutyl-N-(3-methoxyphenethyl)-6,9,10-trimethyl-1,5,8,11-tetraoxo-1,2,3,4,5,6,7,8,9,10,11,12,13,14-tetradecahydroimidazo[1′,2′:1,6]pyrido[2,3-p][1]oxa[4,7,10,14]tetraazacycloheptadecine-3-carboxamide], the EC50 is 549 nM and the Emax was 344%.

Turning to `COc1cc(CCNC(=O)[C@@H]2CC(=O)N(C)[C@@H](CC(C)C)C(=O)N(C)[C@H](C)C(=O)N[C@H](Cc3ccccc3)COc3ccc4nccn4c3C(=O)N2)on1` [Example 789, (3S,7S,10R,13R)-13-benzyl-7-isobutyl-N-(2-(3-methoxyisoxazol-5-yl)ethyl)-6,9,10-trimethyl-1,5,8,11-tetraoxo-1,2,3,4,5,6,7,8,9,10,11,12,13,14-tetradecahydroimidazo[1′,2′:1,6]pyrido[2,3-p][1]oxa[4,7,10,14]tetraazacycloheptadecine-3-carboxamide], the EC50 was found to be 675 nM and the Emax came out at 358%.

For the compound `CC(C)C[C@H]1C(=O)N(C)[C@H](C)C(=O)N[C@H](Cc2ccccc2)COc2ccc3nccn3c2C(=O)N[C@H](C(=O)NCCc2cc(C3CC3)no2)CC(=O)N1C` [Example 790, (3S,7S,10R,13R)-13-benzyl-N-(2-(3-cyclopropylisoxazol-5-yl)ethyl)-7-isobutyl-6,9,10-trimethyl-1,5,8,11-tetraoxo-1,2,3,4,5,6,7,8,9,10,11,12,13,14-tetradecahydroimidazo[1′,2′:1,6]pyrido[2,3-p][1]oxa[4,7,10,14]tetraazacycloheptadecine-3-carboxamide], the EC50 is 650 nM and the Emax came to 350%.

In the case of `COc1cc(CCNC(=O)[C@@H]2CC(=O)N(C)[C@@H](CC(C)C)C(=O)N(C)[C@H](CC(F)(F)F)C(=O)N[C@H](Cc3ccccc3)COc3cc(C)nc(OC)c3C(=O)N2)on1` [Example 791, (3R,6R,9S,13S)-3-benzyl-9-isobutyl-16-methoxy-N-(2-(3-methoxyisoxazol-5-yl)ethyl)-7,10,18-trimethyl-5,8,11,15-tetraoxo-6-(2,2,2-trifluoroethyl)-2,3,4,5,6,7,8,9,10,11,12,13,14,15-tetradecahydropyrido[3,4-p][1]oxa[4,7,10,14]tetraazacycloheptadecine-13-carboxamide], the EC50 worked out at 80 nM and the Emax amounted to 345%.

As a reminder, the EC50 is the concentration giving half of the maximal effect. As a reminder, the Emax is the maximal effect, on the per cent scale that the assay sets.

The record behind these values is patent US20240208992A1, “MACROCYCLES AS CFTR MODULATORS” (Idorsia Pharmaceuticals Ltd, priority 2021, published 2024).
